Experimental data as given in patent US20090111177A1, “Maintenance of Embryonic Stem Cells by the GSK-3 Inhibitor 6-Bromoindirubin-3'-Oxime” (THE ROCKEFELLER UNIVERSITY, priority 2003, published 2009).

Columns and labels:
[1] = test system: canonical Wnt pathway (TCF binding sites, TopFlash); assay: TopFlash luciferase reporter assay in 293 cells; assay type: cell-based; conditions: 293 human kidney epithelial cells; micromolar concentrations; data not shown
Description: (§1) Luciferase assay. […] Test compounds were added 24 hrs after transfection. Following incubation for 24 hrs, cells were harvested, and analyzed by the dual luciferase reporter assay system (Promega) using Lumat (Berthold Technologies). Each value was standardized by Renilla luciferase activity.
(§2) The canonical Wnt signal occurs through binding of the Wnt protein to the Frizzled receptor at cell surface. It is followed by inactivation of GSK-3, leading to accumulation of β-catenin in the nucleus that activates the transcription of Wnt target genes in collaboration with TCFs^18,19. Alternatively, Wnt signaling can be activated by direct, intracellular inhibition of the GSK-3 function using specific inhibitors^20. […] First we examined whether mouse and human ESCs were capable of transducing Wnt signaling under the influence of 6-bromoindirubin-3′-oxime. […] We then evaluated expression of β-catenin at the cellular level as a read-out of the activation status of the canonical Wnt pathway in HESCs.

[2] = test system: canonical Wnt pathway (TCF binding sites, TopFlash); assay: TopFlash/FopFlash luciferase reporter assay in CJ7 cells (MESCs); assay type: cell-based, mouse; conditions: FIG. 2b
Description: as §1, §2

[3] = test system: Oct-3/4; assay: Oct-3/4 immunocytochemistry in HESCs; assay type: cell-based, human
Description: Cell culture. Human embryonic stem cells (HESCs) lines were provided by WiCell Research Institute (H1 line)^5 and BresaGen Inc. (BGN1 and BGN2 lines). H1 cells were cultivated on irradiated mouse embryonic fibroblasts (MEFs) in medium consisting of 80% DMEM/F12 medium, 20% knockout serum replacement (KSR), 1 mM L-glutamine, 1% non-essential amino acids, 0.1 mM β-mercaptoethanol, and 4 ng/ml basic FGF (all from Invitrogen). […] Subsequently, HESCs were cultured on Matrigel (BD biosciences) in medium conditioned by MEFs, and passaged several times until colonies became free from contaminating MEFs as described before^9.
Immunofluorescence. Cells were fixed in 4% paraformaldehyde for 20 min at room temperature and incubated overnight at 4° C. with primary antibodies against Oct-4 (BD Biosciences), β-catenin (BD Biosciences), Tuj-1 (BAbCO), cytokeratin (Sigma), glial fibrillary acidic protein, GFAP, (Dako), smooth muscle actin (Research Diagnostics Inc), α-fetoprotein (α-FP, Cell Sciences) and Tromal (Developmental Studies Hybridoma Bank). For nuclear localization analysis, the fixed samples were subjected to fluorescent digital confocal imaging analysis using a Zeiss LSM 510 confocal microscope (Carl Zeiss). For mouse embryonic tissue sections, mid gestation embryos were fixed in 4% paraformaldehyde followed by paraffin embedding and tissue sectioning. After deparaffinization, tissue sections were incubated with a GFP-specific antibody (Molecular Probe) at 4° C. overnight. Antigens were localized by using goat anti-mouse IgG conjugated to Cy3 or goat anti-rabbit IgG conjugated to Cy2 (Zymed laboratories). For the quantitative image analysis, fluorescent images from triplicate samples were taken by the Discovery1 system (Universal Imaging Corporation). The fluorescent objects were selected by the threshold function and evaluated in five regions of each well by quantification of pixel intensities and the object size by using MetaMorph software (Universal Imaging Corporation).

[4] = test system: HESCs (H1); assay: Embryoid body formation from HESCs; assay type: cell-based, human
Description: Embryoid body (EB) formation. HESCs were harvested by using dispase (Invitrogen), plated on non-tissue culture treated dishes (approximately 10^7 cells/10 cm dish), and grown in non-conditioned medium for 7 d as described before (Sato et al., 2003, Molecular signature of human embryonic stem cells and its comparison with the mouse. Dev Biol 260, 404-413). The number of EBs was determined by counting EBs in 20 different fields at a low magnification (10×) using an Axiovert microscope (Zeiss). Experiments were repeated at least three times, and the average number as well as standard deviation were calculated. For the detection of differentiated derivatives by immunocytochemistry, EBs (day 7) were plated on collagen-coated 12-well plates to allow them to adhere, grown in DMEM containing 10% FBS to induce further differentiation for 7 d and fixed in 4% paraformaldehyde followed by immunostaining as shown below.
RT-PCR. Two μg of total RNA extracted from EBs (day 7) or mouse embryonic fibroblasts was reverse-transcribed using ThermoScript RT-PCR system (Invitrogen) according to the manufacturer's protocol. One μl of cDNA sample was PCR amplified with each gene-specific primers (shown below) using optimized PCR cycles to obtain amplified reactions in a linear range.

[5] = test system: MESCs; assay: Teratoma formation from treated MESCs in syngenic mice; assay type: in vivo, mouse; conditions: MESCs grown in 1 μM, subcutaneous injection into syngenic mice
Description: Teratoma formation. We grew CJ-GFP cells at a low density (500 cells/cm^2) on gelatin-coated 10 cm dishes in medium containing 6-bromoindirubin-3′-oxime 1 μM for 7 d, then passaged cells at the same density and cultured under the same condition another 5 d to further enforce differentiation of cells. […] 6-bromoindirubin-3′-oxime-treated cells (approximately 5×10^6 cells/mouse) were subcutaneously injected into the left flank of syngenic 129 background mice. After three to five weeks, the developed teratoma (approximately 20 mm in diameter) was excised, fixed in 4% paraformaldehyde and subjected to hematoxylin and eosin staining for histological examinations.

[6] = test system: CJ-GFP cells (MESCs); assay: Blastocyst injection of treated CJ-GFP cells, chimera generation; assay type: in vivo, mouse
Description: Blastocyst injection. We cultured CJ-GFP cells at a low density (500 cells/cm^2) on gelatin-coated 10 cm dishes in medium containing 6-bromoindirubin-3′-oxime 1 μM for 5 d. 6-bromoindirubin-3′-oxime-treated cells (approximately 10 to 15 cells per blastocyst) were microinjected into each blastocyst and transferred into surrogate mice in the C57Bl/6 background. Mid-gestation embryos were recovered and subjected to tissue sectioning. Chimerism of live offspring was determined by evaluation of their mixed coat color.
Immunofluorescence. Cells were fixed in 4% paraformaldehyde for 20 min at room temperature and incubated overnight at 4° C. with primary antibodies against Oct-4 (BD Biosciences), β-catenin (BD Biosciences), Tuj-1 (BAbCO), cytokeratin (Sigma), glial fibrillary acidic protein, GFAP, (Dako), smooth muscle actin (Research Diagnostics Inc), α-fetoprotein (α-FP, Cell Sciences) and Tromal (Developmental Studies Hybridoma Bank). […] For the quantitative image analysis, fluorescent images from triplicate samples were taken by the Discovery1 system (Universal Imaging Corporation). The fluorescent objects were selected by the threshold function and evaluated in five regions of each well by quantification of pixel intensities and the object size by using MetaMorph software (Universal Imaging Corporation).

[7] = test system: CJ-GFP cells (MESCs); assay: Low-density culture of CJ-GFP MESCs without LIF, morphology; assay type: cell-based, mouse; conditions: 1 μM; 7 d plus 5 d at low density; data not shown for Me analogue
Description: Teratoma formation. We grew CJ-GFP cells at a low density (500 cells/cm^2) on gelatin-coated 10 cm dishes in medium containing 6-bromoindirubin-3′-oxime 1 μM for 7 d, then passaged cells at the same density and cultured under the same condition another 5 d to further enforce differentiation of cells.

With `O=C1Nc2cc(Br)ccc2/C1=C1/Nc2ccccc2/C1=N\O` [6-bromoindirubin-3′-oxime] the TopFlash reporter activity [1] was “robustly upregulated the reporter activity”, the TopFlash reporter activity ([2]; CJ7 cells (MESCs)) was “remarkable increase in TopFlash reporter activity in a dose-dependent manner” and the FopFlash reporter activity ([2]; CJ7 cells, non-responsive mutated binding sites) was “no substantial change in FopFlash reporter activity”. The “Oct-3/4 expression at the cellular level” value ([3]; HESCs in non-conditioned medium, FIG. 4c) was “sustained Oct-3/4 expression”, the “Oct-3/4 expression by quantitative imaging analysis” value ([3]; versus conditioned medium treatment, data not shown) was “comparable level of Oct-3/4 expression” and the “lineage-specific markers of EBs by RT-PCR” value ([4]; EBs day 7, FIG. 5b) was “developed into ectoderm (NeuroD and keratin), mesoderm (T gene) and endoderm (α-fetoprotein and GATA4) derivatives”. The “differentiation phenotype of adherent EBs by immunocytochemistry” value ([4]; EBs grown under adherent condition, FIG. 5c) was “wide variety of morphology and lineage-specific molecule expression”, the EBs formation ([4]; H1 cells after treatment, FIG. 5a) was “at a level comparable to that seen with conditioned medium-treated cells” and the “teratoma formation, germ layer derivatives” value [5] was “generated teratomas consisting of all three germ layer-derived tissues”. For the same molecule, the “coat-color chimerism of live offspring” value ([6]; initial assessment, new-born animals) was “two of five new-born animals were chimeric”, the “incorporation of treated cells into embryonic tissues” value ([6]; mid-gestation stage, immunohistochemistry, FIG. 6) was “incorporated into several embryonic tissues” and the “colony morphology of MESCs without LIF” value [7] was “still formed round tight colonies”.
